Results as given in ChEMBL document CHEMBL3885881, “DrugMatrix”.

Species: Rattus norvegicus
Assay: DrugMatrix - Regimen: Daily Repeat
Type: toxicity, organism-based, Sprague-Dawley
Set-up: regimen Daily Repeat, gender Male, age 6-8 weeks
Details: in vivo, po, route oral GAVAGE, […]; for ABSOLUTE BASOPHIL / ABSOLUTE EOSINOPHIL / ABSOLUTE LYMPHOCYTE / ABSOLUTE MONOCYTE / ABSOLUTE SEGMENTED NEUTROPHIL / BASOPHIL / EOSINOPHIL / ERYTHROCYTE COUNT / HEMATOCRIT / HEMOGLOBIN / LEUKOCYTE COUNT / LYMPHOCYTE / MEAN CORPUSCULAR HEMOGLOBIN / MEAN CORPUSCULAR HEMOGLOBIN CONCENTRATION / MEAN CORPUSCULAR VOLUME / MONOCYTE / NEUTROPHIL / NUCLEATED RED BLOOD CELLS / PLATELET COUNT: tissue Blood; for ALANINE AMINOTRANSFERASE / ALBUMIN / ALKALINE PHOSPHATASE / ASPARTATE AMINOTRANSFERASE / BLOOD UREA NITROGEN / CARBON DIOXIDE / CHLORIDE / CHOLESTEROL / CREATINE PHOSPHOKINASE / CREATININE / GLUCOSE / LACTATE DEHYDROGENASE / LIPASE / PHOSPHORUS / POTASSIUM / SODIUM / TOTAL BILIRUBIN / TOTAL PROTEIN / URIC ACID: tissue Plasma
[1] = 1 mg/kg, 120 h, dose level Low, time 5 day
[2] = 9 mg/kg, 72 h, dose level High, time 3 day
[3] = 9 mg/kg, 120 h, dose level High, time 5 day

SMILES: O=C(O)COC(=O)Cc1ccccc1Nc1c(Cl)cccc1Cl [ACECLOFENAC]
- ABSOLUTE BASOPHIL [1]: 0 CELLS/uL
- ABSOLUTE EOSINOPHIL [1]: 38.33 CELLS/uL
- ABSOLUTE LYMPHOCYTE [1]: 9464 CELLS/uL
- ABSOLUTE MONOCYTE [1]: 76.67 CELLS/uL
- ABSOLUTE SEGMENTED NEUTROPHIL [1]: 854.33 CELLS/uL
- BASOPHIL [1]: 0%
- EOSINOPHIL [1]: 0.33%
- ERYTHROCYTE COUNT [1]: 5.79 x10E6/uL
- HEMATOCRIT [1]: 35.33%
- HEMOGLOBIN [1]: 13.3 G/DL
- LEUKOCYTE COUNT [1]: 10.43 x10E3/uL
- LYMPHOCYTE [1]: 90.67%
- MEAN CORPUSCULAR HEMOGLOBIN [1]: 23 pg
- MEAN CORPUSCULAR HEMOGLOBIN CONCENTRATION [1]: 37.7 G/DL
- MEAN CORPUSCULAR VOLUME [1]: 61.07 fL
- MONOCYTE [1]: 0.67%
- NEUTROPHIL [1]: 8.33%
- NUCLEATED RED BLOOD CELLS [1]: 0 /100WBC
- PLATELET COUNT [1]: 1057.67 x10E3/uL
- ALANINE AMINOTRANSFERASE [1]: 60.67 u/L
- ALBUMIN [1]: 4.07 G/DL
- ALKALINE PHOSPHATASE [1]: 388 u/L
- ASPARTATE AMINOTRANSFERASE [1]: 80.67 u/L
- BLOOD UREA NITROGEN [1]: 14.33 mg/dL
- CARBON DIOXIDE [1]: 30.33 mmol/L
- CHLORIDE [1]: 101.33 MEQ/L
- CHOLESTEROL [1]: 53.33 mg/dL
- CREATINE PHOSPHOKINASE [1]: 180.67 u/L
- CREATININE [1]: 0.15 mg/dL
- GLUCOSE [1]: 160.67 mg/dL
- LACTATE DEHYDROGENASE [1]: 106 u/L
- LIPASE [1]: 9 u/L
- PHOSPHORUS [1]: 9.9 mg/dL
- POTASSIUM [1]: 5.17 MEQ/L
- SODIUM [1]: 143 MEQ/L
- TOTAL BILIRUBIN [1]: 0.23 mg/dL
- TOTAL PROTEIN [1]: 5.8 G/DL
- URIC ACID [1]: 0.83 mg/dL
- ABSOLUTE BASOPHIL [2]: 0 CELLS/uL
- ABSOLUTE EOSINOPHIL [2]: 21.67 CELLS/uL
- ABSOLUTE LYMPHOCYTE [2]: 7429.67 CELLS/uL
- ABSOLUTE MONOCYTE [2]: 92.33 CELLS/uL
- ABSOLUTE SEGMENTED NEUTROPHIL [2]: 1189.67 CELLS/uL
- BASOPHIL [2]: 0%
- EOSINOPHIL [2]: 0.33%
- ERYTHROCYTE COUNT [2]: 5.12 x10E6/uL
- HEMATOCRIT [2]: 32.1%
- HEMOGLOBIN [2]: 12.63 G/DL
- LEUKOCYTE COUNT [2]: 8.73 x10E3/uL
- LYMPHOCYTE [2]: 84.67%
- MEAN CORPUSCULAR HEMOGLOBIN [2]: 24.73 pg
- MEAN CORPUSCULAR HEMOGLOBIN CONCENTRATION [2]: 39.37 G/DL
- MEAN CORPUSCULAR VOLUME [2]: 62.73 fL
- MONOCYTE [2]: 1.33%
- NEUTROPHIL [2]: 13.67%
- NUCLEATED RED BLOOD CELLS [2]: 0 /100WBC
- PLATELET COUNT [2]: 823.33 x10E3/uL
- ALANINE AMINOTRANSFERASE [2]: 57 u/L
- ALBUMIN [2]: 3.37 G/DL
- ALKALINE PHOSPHATASE [2]: 253 u/L
- ASPARTATE AMINOTRANSFERASE [2]: 77.33 u/L
- BLOOD UREA NITROGEN [2]: 10.67 mg/dL
- CARBON DIOXIDE [2]: 34 mmol/L
- CHLORIDE [2]: 99 MEQ/L
- CHOLESTEROL [2]: 73.67 mg/dL
- CREATINE PHOSPHOKINASE [2]: 625.67 u/L
- CREATININE [2]: 0.12 mg/dL
- GLUCOSE [2]: 160.67 mg/dL
- LACTATE DEHYDROGENASE [2]: 163.33 u/L
- LIPASE [2]: 8.67 u/L
- PHOSPHORUS [2]: 11.57 mg/dL
- POTASSIUM [2]: 6.06 MEQ/L
- SODIUM [2]: 143.37 MEQ/L
- TOTAL BILIRUBIN [2]: 0.13 mg/dL
- TOTAL PROTEIN [2]: 5.3 G/DL
- URIC ACID [2]: 1.03 mg/dL
- ABSOLUTE BASOPHIL [3]: 0 CELLS/uL
- ABSOLUTE EOSINOPHIL [3]: 0 CELLS/uL
- ABSOLUTE LYMPHOCYTE [3]: 9903.33 CELLS/uL
- ABSOLUTE MONOCYTE [3]: 435.33 CELLS/uL
- ABSOLUTE SEGMENTED NEUTROPHIL [3]: 2861.33 CELLS/uL
- BASOPHIL [3]: 0%
- EOSINOPHIL [3]: 0%
- ERYTHROCYTE COUNT [3]: 4.91 x10E6/uL
- HEMATOCRIT [3]: 29.6%
- HEMOGLOBIN [3]: 11.33 G/DL
- LEUKOCYTE COUNT [3]: 13.2 x10E3/uL
- LYMPHOCYTE [3]: 75.33%
- MEAN CORPUSCULAR HEMOGLOBIN [3]: 23.1 pg
- MEAN CORPUSCULAR HEMOGLOBIN CONCENTRATION [3]: 38.33 G/DL
- MEAN CORPUSCULAR VOLUME [3]: 60.27 fL
- MONOCYTE [3]: 3.33%
- NEUTROPHIL [3]: 21.33%
- NUCLEATED RED BLOOD CELLS [3]: 0.33 /100WBC
- PLATELET COUNT [3]: 1272 x10E3/uL
- ALANINE AMINOTRANSFERASE [3]: 58.33 u/L
- ALBUMIN [3]: 3.03 G/DL
- ALKALINE PHOSPHATASE [3]: 312 u/L
- ASPARTATE AMINOTRANSFERASE [3]: 78.33 u/L
- BLOOD UREA NITROGEN [3]: 12 mg/dL
- CARBON DIOXIDE [3]: 28.33 mmol/L
- CHLORIDE [3]: 101.67 MEQ/L
- CHOLESTEROL [3]: 58.33 mg/dL
- CREATINE PHOSPHOKINASE [3]: 296.67 u/L
- CREATININE [3]: 0.2 mg/dL
- GLUCOSE [3]: 165 mg/dL
- LACTATE DEHYDROGENASE [3]: 151 u/L
- LIPASE [3]: 10 u/L
- PHOSPHORUS [3]: 10.13 mg/dL
- POTASSIUM [3]: 5.79 MEQ/L
- SODIUM [3]: 144.97 MEQ/L
- TOTAL BILIRUBIN [3]: 0.13 mg/dL
- TOTAL PROTEIN [3]: 5.03 G/DL
- URIC ACID [3]: 1.1 mg/dL
